The text below walks through data of PubChem BioAssay (NCI).

SMILES strings stand for the structures. In brackets after ≈: the same amount, converted by molar mass.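 Tested at 5 concentrations; 48 h exposure; 96-well plates; endpoints linearly interpolated, else capped at highest concentration. GI50 is the concentration that inhibits growth by half. Definition used: TGI = concentration required for complete inhibition of growth.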

Some test systems named below: RXF-631 renal; P388 leukemia; P388/ADR leukemia; SN12K1 renal.
What all share (experiment): NCI tumour cell line growth inhibition, 48 h

Regarding `COc1cc2nncc(Sc3cnnc4ccccc34)c2cc1OC`, the TGI in the test on RXF-631 renal stood at 53.6 µM.
`CSc1ccc(/C=C2\CNC/C(=C\c3ccc(SC)cc3)C2=O)cc1`: the GI50 was 150 mg/L (≈ 408 µM) in the test with P388 leukemia, 150 mg/L (≈ 408 µM) in the test on P388/ADR leukemia and 15.5 mg/L (≈ 42.1 µM) in the test with SN12K1 renal. Besides, the TGI with P388 leukemia came to 150 mg/L (≈ 408 µM); in the test on RXF-631 renal, 175 µM; in the test with P388/ADR leukemia it was 150 mg/L (≈ 408 µM); in the test with SN12K1 renal, 103 mg/L (≈ 280 µM).
Molecule `Fc1cccc(Cl)c1C1SCc2nc3ccccc3n21` (stereo not drawn) returned a TGI with RXF-631 renal of more than 100 µM.
Still for that read-out and setting: under `O=C1[C@@H](c2ccc(Cl)cc2)[C@H]2CC=C[C@H]2N1O` stands more than 100 µM.
As to `Cc1cc(O)c2c(c1)C(O)(c1ccc3c(c1O)C(=O)c1c(O)cc(C)cc1C3(O)C1OC(CO)C(O)C(O)C1O)c1cccc(O)c1C2=O` (stereo not drawn), in the test with RXF-631 renal, the TGI was found to be 29.5 µM.
On the same count and under the same terms, under `O=[N+]([O-])c1ccc(N=Nc2c(O)[nH]c3ccc([N+](=O)[O-])cc23)cc1` stands 62.7 µM.
On to `O=C(C(=O)c1ccc(Cc2ccc(C(=O)C(=O)c3ccccc3)cc2)cc1)c1ccccc1`, for which the TGI in the test on RXF-631 renal is more than 100 µM.
`CSc1nc2c(c(O)c(C)c(=O)n2C2OC(COC(C)=O)C(OC(C)=O)C(OC(C)=O)C2OC(C)=O)c(=O)n1C` (stereo not drawn) had a TGI with RXF-631 renal of more than 100 µM.
Molecule `C/C(=N/N(C=O)C[n+]1ccccc1)C(CN(CC(C)C)CC(C)C)C(=O)Nc1ccc(C)cc1C` (stereo not drawn) registered a TGI with RXF-631 renal of more than 100 µM.
In the test with RXF-631 renal, `COC(=O)c1ccc2c(c1)C(NC(C)=O)CCc1cc(OC)c(OC)c(OC)c1-2` (stereo not drawn) came in with a TGI of more than 6.91 µM.
Still for that read-out and setting: under `O=C(CCc1nc(=S)[nH][nH]1)NC12CC3CC(CC(C3)C1)C2` stands more than 100 µM.
The same measure, in the same setting: to `CCc1ccccc1NC(=O)C(=O)C(C(=O)c1ccc(OC)cc1)c1ccc(OC)cc1` (stereo not drawn) belongs more than 100 µM.
